The results in this text go back to patent US20260174875A1 (Novo Nordisk A/S, priority 2023, published 2026).

pEC50: −log10 of the molar value. Read-outs that look alike come from different tables or passages of the source. Numbered stars: 1 amine (or outer) side, 2 acyl side, 3 side chain; on linkers, the order of the positions; unused ones are H or OH. Square brackets hold non-standard residues; d marks the D form. Side chains are listed from the residue outwards. * marks the point of attachment. C20 diacid = O=C(O)CCCCCCCCCCCCCCCCCCC(=O)*; C18 diacid = O=C(O)CCCCCCCCCCCCCCCCC(=O)*; γGlu = O=C(O)[C@H](CCC(=O)[*:2])N[*:1]; AEEA = NCCOCCOCC(=O)O; Aib = CC(C)(N)C(=O)O

Holding throughout (format): cell-based
Test [1] addresses T1, human GLP-1 receptor (hGLP-1R) (Homo sapiens, UniProt P43220).
T1 construct: expressed in transfected cells
The test can be described thus: GLP-1 receptor assay, method A (CRE-luciferase reporter, BHK cells). The protocol: (§1) To assess how the activation of the receptors is potentially influenced by the presence of human serum albumin (HSA), the in vitro assays were performed in the absence of HSA and presence of 1% (w/v) HSA.
Cells at approximately 80-90% confluence were washed once in PBS (Gibco 14190-094) and loosened from the cell flasks with Versene (Gibco, 15040-033). […] Cells were aliquoted and stored at −180° C. until use.
(§2) The assay buffer consisted of DMEM without phenol red (Gibco, 11880-028) supplemented with 1× GlutaMAX (Gibco, 35050-038), 10 mM HEPES (Gibco, 15630-056), 1% (w/v) ovalbumin (Sigma, A5503) and 0.1% (v/v) Pluronic F-68 (Gibco, 24040-032) either with HSA or without HSA (Sigma, A9511).
Frozen stocks of hGLP-1R BHK CRE-Luc cells were thawed in a 37° C. water bath, washed once in PBS (Gibco 14190-094) and diluted to 1.5×10^6 (1.5E+6) cells/mL in assay buffer with or without 2% (w/v) HSA (Sigma, A9511). […] The assay plates were incubated for 3 hours at 37° C. in 5% CO2, left at room temperature for 5 minutes after which 100 μL steadylite Plus™ (PerkinElmer/Revvity, 6066759) was added to each well. Plates were sealed and incubated at room temperature with gentle shaking for 30 minutes while protected from light. Luminescence was detected on a luminescence plate reader e.g., a Synergy 2 (BioTek).

The target in test [2] is T2, human GIP receptor (hGIPR) (Homo sapiens, UniProt P48546).
T2 construct: expressed in transfected cells
T2 sequence (P48546 22-466): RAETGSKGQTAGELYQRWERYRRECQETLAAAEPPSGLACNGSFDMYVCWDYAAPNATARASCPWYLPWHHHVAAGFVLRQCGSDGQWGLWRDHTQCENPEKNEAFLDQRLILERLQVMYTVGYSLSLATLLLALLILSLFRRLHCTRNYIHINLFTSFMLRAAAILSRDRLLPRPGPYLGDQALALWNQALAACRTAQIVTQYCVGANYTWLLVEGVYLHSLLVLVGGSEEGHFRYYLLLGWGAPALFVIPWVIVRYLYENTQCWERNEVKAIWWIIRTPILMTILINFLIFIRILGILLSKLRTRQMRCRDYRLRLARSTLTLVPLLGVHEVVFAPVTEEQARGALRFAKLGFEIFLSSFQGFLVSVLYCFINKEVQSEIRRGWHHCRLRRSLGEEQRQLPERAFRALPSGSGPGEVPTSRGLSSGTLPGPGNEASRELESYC
The test can be described thus: GIP receptor assay, method A (CRE-luciferase reporter, BHK cells). The protocol:
To assess how the activation of the receptors is potentially influenced by the presence of human serum albumin (HSA), the in vitro assays were performed in the absence of HSA and presence of 1% (w/v) HSA. Unless stated otherwise the reference to the “GIP receptor assay as described in Example 4” throughout the specification shall refer to the described herein assay procedure method A (hGIPR assay) in the absence of HSA.
Activation of the human GIP receptor leads to increased intra-cellular concentrations of cyclic AMP (cAMP) and the consequent transcription activation from promoters containing multiple copies of the cAMP response element (CRE). It is thus possible to measure GIP receptor activity using a CRE-luciferase reporter gene introduced into Baby Hamster Kidney (BHK) cells co-expressing the human GIP receptor.
Cells at about 80-90% confluency were washed once with PBS (Gibco 14190-094) and detached from the cell flasks with Versene (Gibco, 15040-066). After centrifugation, the cells were counted, resuspended and diluted to approximately 1.5-3.0×10^6 (1.5E+6 to 3.0E+6) cells/mL in Recovery Cell Culture Freezing Medium (Gibco, 12648-010) and stored at −180° C. in suitable aliquots until use.
as §2
On the day before the assay hGIPR BHK Cre-Luc cells were thawed and plated out in 96 well Culture Plates (PerkinElmer/Revvity, 6005680) at 5.0×10^3 (5.0E+3) cells/well in growth medium as described above. The plates were then incubated for 21-23 hours at 37° C. with 5% CO2. On the day of the assay GLP-1-/GIP-/amylin-receptor tri-agonists or reference compounds were diluted in assay buffer using a 7-point, 10-fold titration plus a blank (absence of compound). Each compound was diluted and tested in duplicates in each experiment. In the plates containing the cells the growth medium was removed, and cells were washed twice with 100 μL PBS (Gibco 14190-094). 50 μL of the test compound dilutions were added to the plates containing cells preceded by 50 μL assay buffer with or without 2% (w/v) HSA (Sigma, A9511). The cell plates were incubated for 3 hours in a 5% CO2 incubator at 37° C. The plates were then transferred to room temperature followed by addition of 100 μL steadylite Plus™ (PerkinElmer/Revvity, 6066759). The plates were sealed and shaken for 30 minutes at room temperature while protected from light. Finally, luminescence (as an indicator of receptor activation) was measured on a Mithras reader (Berthold Technologies, DE). The EC50-values [pM] were calculated by non-linear curve fitting applying a four-parameter logistic model (Hill slope=“shared value for all datasets”) using GraphPad Prism (GraphPad Software, Boston, MA, USA).

The target of test [3] is T3, human amylin receptor (hAMYR3) (Homo sapiens, UniProt O60896+P30988).
T3 construct: host or cells: BHK cells (Hollex-1 line expressing hCTR(a) and CRE-Luc), further transfected with human RAMP3
T3 sequence (P30988 25-474): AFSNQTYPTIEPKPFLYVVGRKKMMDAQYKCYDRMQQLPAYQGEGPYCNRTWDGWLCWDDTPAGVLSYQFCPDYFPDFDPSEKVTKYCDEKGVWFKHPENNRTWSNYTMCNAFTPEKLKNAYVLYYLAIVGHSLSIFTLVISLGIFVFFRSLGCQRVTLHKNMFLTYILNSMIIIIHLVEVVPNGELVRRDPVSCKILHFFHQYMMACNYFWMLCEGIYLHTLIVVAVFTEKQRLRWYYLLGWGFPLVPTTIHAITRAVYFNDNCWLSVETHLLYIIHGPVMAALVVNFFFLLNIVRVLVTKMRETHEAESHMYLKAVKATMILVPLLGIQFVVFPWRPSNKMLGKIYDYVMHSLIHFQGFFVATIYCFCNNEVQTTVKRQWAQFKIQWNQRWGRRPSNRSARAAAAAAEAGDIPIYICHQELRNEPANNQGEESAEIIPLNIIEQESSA
T3 sequence (O60896 24-148): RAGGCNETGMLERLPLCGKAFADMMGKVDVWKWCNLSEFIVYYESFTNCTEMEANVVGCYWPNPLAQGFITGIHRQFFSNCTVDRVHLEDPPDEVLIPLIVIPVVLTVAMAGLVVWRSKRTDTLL
In words: Amylin receptor assay, method A (CRE-luciferase reporter, BHK cells). The protocol: as §1
It is thus possible to measure hAMYR3 activity using a CRE-luciferase reporter gene introduced into Baby Hamster Kidney (BHK) cells co-expressing the hAMYR3.
The cell line was further transfected with human receptor modifying protein 3 (RAMP3) using standard methods.
After centrifugation, the cell pellet was resuspended and diluted to approximately 2.5-4.0×10^6 (2.5E+6 to 4.0E+6) cells/mL in Recovery™ Cell Culture Freezing Medium (Gibco, 12648-010). Cells were aliquoted and stored at −180° C. until use.
The assay buffer consisted of DMEM without phenol red (Gibco, 11880-028) supplemented with 1× GlutaMAX (Gibco, 35050-038), 10 mM HEPES (Gibco, 15630-056) and 1% (w/v) ovalbumin (Sigma, A5503) either with or without 0.1% (v/v) Pluronic F-68 (Gibco, 24040-032) and either with or without HSA (Sigma, A9511).
The plate was incubated over night at 37° C. in 5% CO2. […] Luminescence was detected on a luminescence plate reader e.g., a Synergy 2 (BioTek).

Setting [4] is: method A, absence of HSA, read-out: hGLP-1R Potency, no HSA, EC50.
Where [5] appears, read: method A, absence of HSA, read-out: hGIPR Potency, no HSA, EC50.
[6] abbreviates: method A, absence of HSA, read-out: hAMYR3 Potency, no HSA, EC50.
Where [7] appears, read: hGLP-1R Potency, 1% HSA, EC50, method A, in the presence of 1% HSA.
Where [8] appears, read: hGIPR Potency, 1% HSA, EC50, method A, in the presence of 1% HSA.
Where [9] appears, read: hAMYR3 Potency, 1% HSA, EC50, method A, in the presence of 1% HSA.

T1 sequence (P43220 24-463): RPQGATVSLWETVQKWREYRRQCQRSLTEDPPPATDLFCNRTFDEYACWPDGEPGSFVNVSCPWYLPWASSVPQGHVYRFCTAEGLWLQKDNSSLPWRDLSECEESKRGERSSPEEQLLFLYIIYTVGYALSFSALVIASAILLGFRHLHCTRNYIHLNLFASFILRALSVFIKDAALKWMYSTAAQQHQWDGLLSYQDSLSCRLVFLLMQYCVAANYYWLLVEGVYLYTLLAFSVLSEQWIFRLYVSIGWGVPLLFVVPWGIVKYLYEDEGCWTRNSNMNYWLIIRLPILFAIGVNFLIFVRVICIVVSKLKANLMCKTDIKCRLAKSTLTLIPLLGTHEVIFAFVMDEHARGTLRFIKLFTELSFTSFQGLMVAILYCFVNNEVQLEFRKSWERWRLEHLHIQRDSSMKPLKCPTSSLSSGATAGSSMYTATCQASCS

In the case of “Y[Aib]EGTFTSDYSILLEEQAAREFIEWLLAGGPSK([AEEA-AEEA-γGlu-C18 diacid])GAPPPSGGGGASELSTAALGRLSAELHRLATLPRTETGSGSP-NH2 [Compound 13]”, the pEC50 in test [1] (setting [4]) was 10.42; in test [2] (setting [5]), 11.62; in test [3] (setting [6]), 11.65.

As for “Y[Aib]EGTFTSDYSILLEEQAAREFIEWLLAGGPSK([AEEA-AEEA-γGlu-C18 diacid])GEASELSTAALARLSAELHRLATLPRTETGSGSP-NH2 [Compound 28]”, the figures for the pEC50 in test [1] (setting [4]), in test [2] (setting [5]) and in test [3] (setting [6]) were 10.02, 11.46 and 11.64, respectively.

Take “Y[Aib]EGTFTSDYSILLEEQAAREFIEWLLAGGPSK([AEEA-AEEA-γGlu-C18 diacid])GEASELSTAALGRLSAELHRLATLPRTETGSGSP-NH2 [Compound 19]”: the pEC50 in test [1] (setting [4]) is 10.24; in test [2] (setting [5]), 11.03; in test [3] (setting [6]) it was 11.37.

Consider “Y[Aib]EGTFTSDYSILLEEQAAREFIEWLLAGGPSK([AEEA-AEEA-γGlu-C18 diacid])GEASELSTAALGRLSAELHYLATLPRTETGSGSP-NH2 [Compound 29]”, for which the pEC50 was 10.57 in test [1] (setting [4]), 11.58 in test [2] (setting [5]) and 11.51 in test [3] (setting [6]).

Regarding “Y[Aib]EGTFTSDYSILLEEQAAREFIEWLLAGGPSK([AEEA-AEEA-γGlu-C18 diacid])GEASELSTAQLGRLSAELHRLATLPRTETGSGSP-NH2 [Compound 27]”, the values for the pEC50 in test [1] (setting [4]), in test [2] (setting [5]) and in test [3] (setting [6]) were 10.58, 11.68 and 11.42, respectively.

Consider “Y[Aib]EGTFTSDYSILLEEQAAREFIEWLLAGGPSK([AEEA-AEEA-γGlu-C18 diacid])GEASHLSTAQTQRLSAELHELATLPRTETGSGSP-NH2 [Compound 34]”, for which the pEC50 in test [1] (setting [4]) is 10.66; in test [2] (setting [5]) it was 11.77; in test [3] (setting [6]), 11.17.

On to “Y[Aib]EGTFTSDYSILLEEQAAREFIEWLLAGGPSK([AEEA-AEEA-γGlu-C18 diacid])GGGGEGGGEGEASHLSTAQTQRLSAELHELATLPRTETGSGSP-NH2 [Compound 40]”, for which the pEC50 in test [1] (setting [4]) was 10.63; in test [2] (setting [5]) it was 11.79; in test [3] (setting [6]) it was 11.26.

Take “Y[Aib]EGTFTSDYSILLEEQAAREFIEWLLAGGPSK([AEEA-AEEA-γGlu-C18 diacid])GGQEPGQEPGEASHLSTAQTQRLSAELHELATLPRTETGSGSP-NH2 [Compound 39]”: the pEC50 was 8.72 in test [1] (setting [7]); 10.62 in test [1] (setting [4]); 9.45 in test [2] (setting [8]); 11.79 in test [2] (setting [5]); 9.85 in test [3] (setting [9]); 11.24 in test [3] (setting [6]).

In the case of “Y[Aib]EGTFTSDYSILLEEQAAREFIEWLLAGGPSK([γGlu-C20 diacid])GAPPPSGGGEASELSTAALGRLSAELHRLADLPRTETGSGSP-NH2 [Compound 41]”, the pEC50 was 10.39 in test [1] (hGLP-1R Potency, no HSA, EC50, method A, absence of HSA); 11.30 in test [2] (hGIPR Potency, no HSA, EC50, method A, absence of HSA); 11.17 in test [3] (hAMYR3 Potency, no HSA, EC50, method A, absence of HSA).

Take “Y[Aib]EGTFTSDYSILLEEQAAREFIEWLLAGGPSRGAPPPSGGGEASHLSTQTQGRLSAELHK([AEEA-AEEA-γGlu-C18 diacid])LATLPRTETGSGSP-NH2 [Compound 72]”: the pEC50 in test [1] (setting [7]) was 10.38; in test [1] (setting [4]), 10.88; in test [2] (setting [8]), 11.01; in test [2] (setting [5]), 11.67; in test [3] (setting [9]), 9.23; in test [3] (setting [6]), 11.18.

On to “Y[Aib]EGTFTSDYSILLEEQAAREFIEWLLAGGPSRGEASELSTAALGRLSAELHK([AEEA-AEEA-γGlu-C18 diacid])LATLPRTETGSGSP-NH2 [Compound 67]”, for which the negative-log EC50 (pEC50) in test [1] (setting [7]) was 9.98; in test [1] (setting [4]), 10.81; in test [2] (setting [8]), 10.43; in test [2] (setting [5]), 11.37; in test [3] (setting [9]), 9.72; in test [3] (setting [6]) it was 11.44.

With “Y[Aib]EGTFTSDYSILLEEQAAREFIEWLLAGGPSRGEASHLSTAQTQRLSAELHK([AEEA-AEEA-γGlu-C20 diacid])LATLPRTETGSGSP-NH2 [Compound 94]”, the pEC50 in test [1] (setting [7]) was 9.89; in test [1] (setting [4]), 10.79; in test [2] (setting [8]), 10.53; in test [2] (setting [5]), 11.54; in test [3] (setting [9]), 9.42; in test [3] (setting [6]), 11.41.

Turning to “Y[Aib]EGTFTSDYSILLEEQAAREFIEWLLAGGPSSGAGQAPGQAPGASHLSTAALARLSAELHK([AEEA-AEEA-γGlu-C18 diacid])LATLPRTETGSGSP-NH2 [Compound 114]”, the pEC50 is 9.90 in test [1] (setting [7]); 10.36 in test [1] (setting [4]); 10.76 in test [2] (setting [8]); 11.37 in test [2] (setting [5]); 10.34 in test [3] (setting [9]); 11.64 in test [3] (setting [6]).

Take “Y[Aib]EGTFTSDYSILLEEQAAREFIEWLLAGGPSSGAGQAPGQAPGASHLSTAQTARLSAELHK([AEEA-AEEA-γGlu-C18 diacid])LATLPRTETGSGSP-NH2 [Compound 113]”: the pEC50 in test [1] (setting [7]) was 10.24; in test [1] (setting [4]) it was 10.84; in test [2] (setting [8]) it was 11.05; in test [2] (setting [5]), 11.69; in test [3] (setting [9]), 9.87; in test [3] (setting [6]), 11.60.
